The source of these data is patent US8138189B2, “Substituted benzene compounds as modulators of the glucocorticoid receptor” (Hoffman-La Roche Inc., priority 2009, dated 2012).

The structures appear in SMILES notation. pKi: −log10 of the molar value.

The target in the first assay is T1, full length human recombinant glucocorticoid receptor (Homo sapiens, UniProt P04150).
T1 construct: partially purified full length human recombinant glucocorticoid receptor; purchased Panvera/Invitrogen PV4302
T1 sequence (P04150 1-777): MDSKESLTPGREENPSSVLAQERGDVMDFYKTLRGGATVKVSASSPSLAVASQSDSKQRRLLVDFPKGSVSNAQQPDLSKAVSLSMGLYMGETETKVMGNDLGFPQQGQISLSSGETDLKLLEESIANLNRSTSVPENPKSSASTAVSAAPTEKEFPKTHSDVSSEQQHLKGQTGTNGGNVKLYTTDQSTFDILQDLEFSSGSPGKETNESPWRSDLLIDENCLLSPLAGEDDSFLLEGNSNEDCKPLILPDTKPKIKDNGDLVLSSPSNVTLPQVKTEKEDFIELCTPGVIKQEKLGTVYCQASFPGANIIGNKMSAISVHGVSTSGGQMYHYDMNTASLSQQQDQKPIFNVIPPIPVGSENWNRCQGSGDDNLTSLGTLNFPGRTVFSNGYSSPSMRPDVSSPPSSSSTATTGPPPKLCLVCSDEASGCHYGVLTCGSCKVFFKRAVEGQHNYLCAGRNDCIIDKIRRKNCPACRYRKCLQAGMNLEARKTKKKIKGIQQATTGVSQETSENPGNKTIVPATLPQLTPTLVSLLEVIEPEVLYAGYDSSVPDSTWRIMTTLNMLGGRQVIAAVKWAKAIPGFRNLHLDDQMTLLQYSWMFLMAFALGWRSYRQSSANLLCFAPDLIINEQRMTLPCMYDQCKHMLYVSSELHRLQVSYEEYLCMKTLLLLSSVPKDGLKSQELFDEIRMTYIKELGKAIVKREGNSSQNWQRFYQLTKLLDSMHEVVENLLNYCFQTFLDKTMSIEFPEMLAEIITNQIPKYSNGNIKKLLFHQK
In words: Glucocorticoid Receptor Binding Assay (fluorescence polarization competitor assay, Fluormone GS Far Red tracer).
Conditions: not given
In a few lines:
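Partially purified full-length recombinant human GR with a stabilizing coactivator peptide was incubated with Fluormone GS Far Red tracer and serially diluted compound for 3 h at 22 °C in the dark, pH 7.4. Fluorescence polarization was read at 610-660 nm. IC50 came from sigmoidal fitting, and Ki from Cheng-Prusoff.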
A general note: Fluorescence polarisation rises when a labelled molecule tumbles more slowly, as on binding a larger partner.
On to `Cc1cc([C@@](O)([C@@H](C)c2ccc(Oc3ccc(C(=O)O)cc3C(F)(F)F)cc2Cl)C(F)(F)F)cn(C)c1=O` (single isomer, unassigned) [Example 219, 4-{3-Chloro-4-[2-(1,5-dimethyl-6-oxo-1,6-dihydro-pyridin-3-yl)-3,3,3-trifluoro-2-hydroxy-1-methyl-propyl]-phenoxy}-3-trifluoromethyl-benzoic acid], for which the pKi (as a rule, −log10 of the Ki, conventionally taken in molar units) is 8.77.

Take `CCOC(=O)c1ccc(COc2ccc([C@@H](C)[C@@](O)(c3cnc(C)cn3)C(F)(F)F)c(Cl)c2)cc1` (stereo in doubt) [Example 7, 4-{3-Chloro-4-[(1R,2R)-3,3,3-trifluoro-2-hydroxy-1-methyl-2-(5-methyl-pyrazin-2-yl)-propyl]-phenoxymethyl}-benzoic acid ethyl ester]: the pKi was 7.42.

`Cc1cnc([C@](O)([C@H](C)c2ccc(OCc3ccc(CC(=O)O)cc3)cc2Cl)C(F)(F)F)cn1` (stereo in doubt) [Example 12, (4-{3-Chloro-4-[3,3,3-trifluoro-2-hydroxy-1-methyl-2-(5-methyl-pyrazin-2-yl)-propyl]-phenoxymethyl}-phenyl)-acetic acid]: the pKi was 7.47.

Regarding `COC(=O)c1ccc(COc2ccc([C@@H](C)[C@@](O)(c3cnc(C)cn3)C(F)(F)F)c(Cl)c2)c(Cl)c1` (stereo in doubt) [Example 13, 3-Chloro-4-{3-chloro-4-[3,3,3-trifluoro-2-hydroxy-1-methyl-2-(5-methyl-pyrazin-2-yl)-propyl]-phenoxymethyl}-benzoic acid methyl ester], the pKi is 7.93.

In the case of `Cc1cnc([C@](O)([C@H](C)c2ccc(OCc3ccc(C(=O)O)cc3Cl)cc2Cl)C(F)(F)F)cn1` (stereo in doubt) [Example 14, 3-Chloro-4-{3-chloro-4-[3,3,3-trifluoro-2-hydroxy-1-methyl-2-(5-methyl-pyrazin-2-yl)-propyl]-phenoxymethyl}-benzoic acid], the pKi is 8.55.

As to `COc1cc(C(=O)O)ccc1COc1ccc([C@@H](C)[C@@](O)(c2cnc(C)cn2)C(F)(F)F)c(Cl)c1` (stereo in doubt) [Example 16, 4-{3-Chloro-4-[3,3,3-trifluoro-2-hydroxy-1-methyl-2-(5-methyl-pyrazin-2-yl)-propyl]-phenoxymethyl}-3-methoxy-benzoic acid], the pKi was 7.14.

Regarding `COC(=O)C(C)c1ccc(COc2ccc([C@@H](C)[C@@](O)(c3cnc(C)cn3)C(F)(F)F)c(Cl)c2)cc1` (stereo in doubt) [Example 17, 2-(4-{3-Chloro-4-[3,3,3-trifluoro-2-hydroxy-1-methyl-2-(5-methyl-pyrazin-2-yl)-propyl]-phenoxymethyl}-phenyl)-propionic acid methyl ester], the pKi is 7.47.

As to `Cc1cnc([C@](O)([C@H](C)c2ccc(OCc3ccc(C(C)C(=O)O)cc3)cc2Cl)C(F)(F)F)cn1` (stereo in doubt) [Example 18, 2-(4-{3-Chloro-4-[3,3,3-trifluoro-2-hydroxy-1-methyl-2-(5-methyl-pyrazin-2-yl)-propyl]-phenoxymethyl}-phenyl)-propionic acid], the pKi was 6.96.

As to `CCOC(=O)c1ccc(COc2ccc([C@@H](C)[C@@](O)(c3ccnc(Cl)c3)C(F)(F)F)c(Cl)c2)cc1` (stereo in doubt) [Example 19, 4-{3-Chloro-4-[2-(2-chloro-pyridin-4-yl)-3,3,3-trifluoro-2-hydroxy-1-methyl-propyl]-phenoxymethyl}-benzoic acid ethyl ester], the pKi is 7.34.

In the case of `C[C@H](c1ccc(OCc2ccc(C(=O)O)cc2)cc1Cl)[C@@](O)(c1ccnc(Cl)c1)C(F)(F)F` (stereo in doubt) [Example 20, 4-{3-Chloro-4-[2-(2-chloro-pyridin-4-yl)-3,3,3-trifluoro-2-hydroxy-1-methyl-propyl]-phenoxymethyl}-benzoic acid], the pKi is 8.54.

As to `COc1cc(C(=O)O)ccc1COc1ccc([C@@H](C)[C@@](O)(c2ccnc(Cl)c2)C(F)(F)F)c(Cl)c1` (stereo in doubt) [Example 22, 4-{3-Chloro-4-[2-(2-chloro-pyridin-4-yl)-3,3,3-trifluoro-2-hydroxy-1-methyl-propyl]-phenoxymethyl}-3-methoxy-benzoic acid], the pKi was 7.97.

Turning to `C[C@H](c1ccc(OCc2ccc(CC(=O)O)cc2)cc1Cl)[C@@](O)(c1ccnc(Cl)c1)C(F)(F)F` (stereo in doubt) [Example 24, (4-{3-Chloro-4-[2-(2-chloro-pyridin-4-yl)-3,3,3-trifluoro-2-hydroxy-1-methyl-propyl]-phenoxymethyl}-phenyl)-acetic acid], the pKi is 8.33.

For `C[C@H](c1ccc(OS(=O)(=O)c2ccc(C(=O)O)cc2)cc1Cl)[C@@](O)(c1ccnc(Cl)c1)C(F)(F)F` (stereo in doubt) [Example 25, 4-{3-Chloro-4-[2-(2-chloro-pyridin-4-yl)-3,3,3-trifluoro-2-hydroxy-1-methyl-propyl]-phenoxysulfonyl}-benzoic acid], the pKi is 7.94.

For `C[C@H](c1ccc(C(=O)Nc2ccc(C(=O)O)cc2)cc1Cl)[C@@](O)(c1ccnc(Cl)c1)C(F)(F)F` (stereo in doubt) [Example 26, 4-{3-Chloro-4-[2-(2-chloro-pyridin-4-yl)-3,3,3-trifluoro-2-hydroxy-1-methyl-propyl]-benzoylamino}-benzoic acid], the pKi is 6.70.

For the compound `COC(=O)c1ccnc(NC(=O)c2ccc([C@@H](C)[C@@](O)(c3ccnc(Cl)c3)C(F)(F)F)c(Cl)c2)c1` (stereo in doubt) [Example 27, 2-{3-Chloro-4-[-2-(2-chloro-pyridin-4-yl)-3,3,3-trifluoro-2-hydroxy-1-methyl-propyl]-benzoylamino}-isonicotinic acid methyl ester], the pKi was 7.02.

On to `C[C@H](c1ccc(C(=O)Nc2cc(C(=O)O)ccn2)cc1Cl)[C@@](O)(c1ccnc(Cl)c1)C(F)(F)F` (stereo in doubt) [Example 29, 2-{3-Chloro-4-[2-(2-chloro-pyridin-4-yl)-3,3,3-trifluoro-2-hydroxy-1-methyl-propyl]-benzoylamino}-isonicotinic acid], for which the pKi was 6.77.

Regarding `CCOC(=O)C1CCN(C(=O)c2ccc([C@@H](C)[C@@](O)(c3ccnc(Cl)c3)C(F)(F)F)c(Cl)c2)CC1` (stereo in doubt) [Example 32, 1-{3-Chloro-4-[2-(2-chloro-pyridin-4-yl)-3,3,3-trifluoro-2-hydroxy-1-methyl-propyl]-benzoyl}-piperidine-4-carboxylic acid ethyl ester], the pKi was 6.61.

With `C[C@H](c1ccc(C(=O)Nc2ccn(CC(=O)O)n2)cc1Cl)[C@@](O)(c1ccnc(Cl)c1)C(F)(F)F` (stereo in doubt) [Example 35, (3-{3-Chloro-4-[2-(2-chloro-pyridin-4-yl)-3,3,3-trifluoro-2-hydroxy-1-methyl-propyl]-benzoylamino}-pyrazol-1-yl)-acetic acid], the pKi is 6.47.

`C[C@H](c1ccc(C(=O)NCc2ccc(C(=O)O)cc2)cc1Cl)[C@@](O)(c1ccnc(Cl)c1)C(F)(F)F` (stereo in doubt) [Example 37, 4-({3-Chloro-4-[2-(2-chloro-pyridin-4-yl)-3,3,3-trifluoro-2-hydroxy-1-methyl-propyl]-benzoylamino}-methyl)-benzoic acid]: the pKi is 6.85.

Take `C[C@H](c1ccc(C(=O)Nc2ccc(CC(=O)O)cc2)cc1Cl)[C@@](O)(c1ccnc(Cl)c1)C(F)(F)F` (stereo in doubt) [Example 39, (4-{3-Chloro-4-[2-(2-chloro-pyridin-4-yl)-3,3,3-trifluoro-2-hydroxy-1-methyl-propyl]-benzoylamino}-phenyl)-acetic acid]: the pKi is 6.56.

Regarding `C[C@H](c1ccc(C(=O)Nc2cccc(C(=O)O)c2)cc1Cl)[C@@](O)(c1ccnc(Cl)c1)C(F)(F)F` (stereo in doubt) [Example 41, 3-{3-Chloro-4-[2-(2-chloro-pyridin-4-yl)-3,3,3-trifluoro-2-hydroxy-1-methyl-propyl]-benzoylamino}-benzoic acid], the pKi was 6.54.

Still in this assay, the particulars now being: Ki calculated from IC50 by Cheng-Prusoff; 3 hours at 22° C., pH 7.4.
For the compound `Cc1cc([C@@](O)([C@@H](C)c2ccc(Oc3ccc(C(=O)O)cc3C(F)(F)F)cc2Cl)C(F)(F)F)cn(C)c1=O` (single isomer, unassigned) [Example 241, 4-{3-Chloro-4-[2-(1,5-dimethyl-6-oxo-1,6-dihydro-pyridin-3-yl)-3,3,3-trifluoro-2-hydroxy-1-methyl-propyl]-phenoxy}-3-trifluoromethyl-benzoic acid], the pKi was 8.77.
